Measurements as given in patent US20250296953A1, “3,4-THIAZOLO-STEROIDS AND METHODS OF MAKING AND USING THE SAME” (Arkansas State University - Jonesboro, priority 2018, published 2025).
Like-named read-outs stand apart in the source and are kept apart here.

Tests used:
[1] = system: HCT-15 (Colon Cancer); experiment: NCI 60 one dose screen; assay type: cell-based, human
[2] = system: SF-539; experiment: NCI 60 one dose screen; assay type: cell-based, human; details: one dose; CNS Cancer; SF-539
[3] = system: 60 different human tumor cell lines; experiment: cells
[4] = system: RPMI-8226; experiment: NCI 60 five dose screen
[5] = system: SR; experiment: NCI 60 five dose screen

C[C@]12CC[C@H]3[C@@H](CC=C4c5sc(Nc6ccccc6)nc5CC[C@@]43C)[C@@H]1CC[C@@H]2O [IIIa.10, (1S,2R,13R,14S,17S,18S)-7-anilino-2,18-dimethyl-8-thia-6-azapentacyclo[11.7.0.02,10.05,9.014,18]icosa-5(9),6,10-trien-17-ol]
Growth Percent [1]: −30.18% | Growth Percent [2]: −34.31% | GI50 ([3]; 60 cell): 2.37 µM | CC50 ([3]; 60 cell, read-out: LC50): 38.4 µM | GI50 ([3]; 786-0): 1.22 µM | CC50 ([3]; 786-0, read-out: LC50): 8.87 µM | GI50 ([3]; A498): 2.16 µM | CC50 ([3]; A498, read-out: LC50): 20.7 µM | GI50 ([3]; A549): 2.41 µM | CC50 ([3]; A549, read-out: LC50): 46.2 µM | GI50 ([3]; ACHN): 1.71 µM | CC50 ([3]; ACHN, read-out: LC50): 6.19 µM | GI50 ([3]; BT-549): 1.38 µM | CC50 ([3]; BT-549, read-out: LC50): 32.6 µM | GI50 ([3]; CAKI-1): 2.32 µM | CC50 ([3]; CAKI-1, read-out: LC50): 19.2 µM | GI50 ([3]; CCRF-CEM): 1.6 µM | CC50 ([3]; CCRF-CEM, read-out: LC50): > 100 µM | GI50 ([3]; COLO 205): 2.45 µM | CC50 ([3]; COLO 205, read-out: LC50): 50.8 µM | GI50 ([3]; DU-145): 1.7 µM | CC50 ([3]; DU-145, read-out: LC50): 7.68 µM | GI50 ([3]; EKVX): 2.75 µM | CC50 ([3]; EKVX, read-out: LC50): 63.8 µM | GI50 ([3]; HCC 2998): 1.97 µM | CC50 ([3]; HCC 2998, read-out: LC50): 6.42 µM | GI50 ([3]; HCT-15): 1.6 µM | CC50 ([3]; HCT-15, read-out: LC50): 30.6 µM | GI50 ([3]; HCT-116): 1.51 µM | CC50 ([3]; HCT-116, read-out: LC50): 6.01 µM | GI50 ([3]; HL-60): 2.02 µM | CC50 ([3]; HL-60, read-out: LC50): > 100 µM | GI50 ([3]; HOP-62): 2.47 µM | CC50 ([3]; HOP-62, read-out: LC50): > 100 µM | GI50 ([3]; HOP-92): 2.84 µM | CC50 ([3]; HOP-92, read-out: LC50): 27.4 µM | GI50 ([3]; HT-29): 2.13 µM | GI50 ([3]; Hs-578T): 2.16 µM | CC50 ([3]; Hs-578T, read-out: LC50): > 100 µM | GI50 ([3]; IGROV-1): 2.78 µM | CC50 ([3]; IGROV-1, read-out: LC50): > 100 µM | GI50 ([3]; K562): 2.45 µM | CC50 ([3]; K562, read-out: LC50): > 100 µM | GI50 ([3]; KM12): 1.68 µM | CC50 ([3]; KM12, read-out: LC50): 5.77 µM | GI50 ([3]; LOX IMVI): 1.33 µM | CC50 ([3]; LOX IMVI, read-out: LC50): 5.78 µM | GI50 ([3]; M14): 1.84 µM | CC50 ([3]; M14, read-out: LC50): 9.9 µM | GI50 ([3]; MCF7): 1.8 µM | CC50 ([3]; MCF7, read-out: LC50): > 100 µM | GI50 ([3]; MDA-MB-231): 1.99 µM | CC50 ([3]; MDA-MB-231, read-out: LC50): 12.8 µM | GI50 ([3]; MDA-MB-435): 2.25 µM | CC50 ([3]; MDA-MB-435, read-out: LC50): 29.7 µM | GI50 ([3]; MDA-MB-468): 1.72 µM | CC50 ([3]; MDA-MB-468, read-out: LC50): 6.66 µM | GI50 ([3]; MOLT-4): 1.87 µM | CC50 ([3]; MOLT-4, read-out: LC50): > 100 µM | GI50 ([3]; Malme-3M): 2.19 µM | CC50 ([3]; Malme-3M, read-out: LC50): 21.9 µM | GI50 ([3]; NCI-H23): 2.03 µM | CC50 ([3]; NCI-H23, read-out: LC50): 23.7 µM | GI50 ([3]; NCI-H226): 2.4 µM | CC50 ([3]; NCI-H226, read-out: LC50): > 100 µM | GI50 ([3]; NCI-H322M): 2.88 µM | CC50 ([3]; NCI-H322M, read-out: LC50): 35.2 µM | GI50 ([3]; NCI-H460): 1.95 µM | CC50 ([3]; NCI-H460, read-out: LC50): 8.37 µM | GI50 ([3]; NCI-H522): 1.9 µM | CC50 ([3]; NCI-H522, read-out: LC50): 14.3 µM | GI50 ([3]; NCI/ADR-RES): 3.39 µM | CC50 ([3]; NCI/ADR-RES, read-out: LC50): > 100 µM | GI50 ([3]; OVCAR-3): 1.28 µM | CC50 ([3]; OVCAR-3, read-out: LC50): 5.37 µM | GI50 ([3]; OVCAR-4): 3.13 µM | CC50 ([3]; OVCAR-4, read-out: LC50): 56.8 µM | GI50 ([3]; OVCAR-5): 2.68 µM | CC50 ([3]; OVCAR-5, read-out: LC50): 34 µM | GI50 ([3]; OVCAR-8): 3.43 µM | CC50 ([3]; OVCAR-8, read-out: LC50): 93.7 µM | GI50 ([3]; RXF 393): 0.798 µM | CC50 ([3]; RXF 393, read-out: LC50): 5.81 µM | GI50 ([3]; SF-268): 1.66 µM | CC50 ([3]; SF-268, read-out: LC50): 6.62 µM | GI50 ([3]; SK-MEL-2): 2.51 µM | CC50 ([3]; SK-MEL-2, read-out: LC50): 22.2 µM | GI50 ([3]; SK-MEL-5): 1.82 µM | CC50 ([3]; SK-MEL-5, read-out: LC50): 6.4 µM | GI50 ([3]; SK-MEL-28): 1.68 µM | CC50 ([3]; SK-MEL-28, read-out: LC50): 9.49 µM | GI50 ([3]; SK-OV-3): 5.16 µM | CC50 ([3]; SK-OV-3, read-out: LC50): 51.2 µM | GI50 ([3]; SN12C): 1.65 µM | CC50 ([3]; SN12C, read-out: LC50): 6.53 µM | GI50 ([3]; SNB-19): 1.86 µM | CC50 ([3]; SNB-19, read-out: LC50): 7.65 µM | GI50 ([3]; SNB-75): 1.49 µM | CC50 ([3]; SNB-75, read-out: LC50): 6.24 µM | GI50 ([3]; SW-620): 2.27 µM | CC50 ([3]; SW-620, read-out: LC50): 23.2 µM | GI50 ([3]; T47D): 2.41 µM | CC50 ([3]; T47D, read-out: LC50): > 100 µM | GI50 ([3]; TK-10): 2.91 µM | CC50 ([3]; TK-10, read-out: LC50): 23 µM | GI50 ([3]; U-251): 1.36 µM | CC50 ([3]; U-251, read-out: LC50): 5.7 µM | GI50 ([3]; UACC-62): 1.83 µM | CC50 ([3]; UACC-62, read-out: LC50): 8.55 µM | GI50 ([3]; UACC-257): 2.54 µM | CC50 ([3]; UACC-257, read-out: LC50): 30.5 µM | GI50 ([3]; UO-31): 1.67 µM | CC50 ([3]; UO-31, read-out: LC50): 5.56 µM | GI50 ([4]; Homo sapiens, RPMI-8226): 0.465 µM | CC50 ([4]; Homo sapiens, RPMI-8226, read-out: LC50): > 100 µM | TGI ([4]; RPMI-8226 (Leukemia), five dose): 2.47E−6 | GI50 ([5]; Homo sapiens, SR): 0.241 µM | CC50 ([5]; Homo sapiens, SR, read-out: LC50): > 100 µM | TGI ([5]; SR (Leukemia), five dose): 6.10E−6
